Assays:
[1] = test system: Neurons from the brain's hippocampus; assay: In vitro hypoxia cell death (ethidium homodimer); type: cell-based, rat; conditions: for Cell Death (% Control): hypoxia (<0.3% O2) 48 h
Procedure: (§1) Neurons from the brain's hippocampus were derived from E17 pups and incubated for 7 days. The neurons were then pre-treated with QBA for 48 hours and subsequently exposed to a hypoxia (<0.3% O2) for 48 hours. The cultures were stained with calcein AM, a marker of live cells, and with ethidium homodimer, a marker for dead cells. The fluorescence of each of these markers was then quantitated with a fluorimeter.

[2] = test system: Neurons from the brain's hippocampus; assay: In vitro hypoxia cell health (calcein AM); type: cell-based, rat; conditions: for Cell Viability (% Control): hypoxia (<0.3% O2) 48 h
Procedure: as §1

[3] = test system: 19-20 month-old male rats; assay: Elevated plus-maze, rats fed QBA alone or QBA+DHA; type: in vivo, rat; conditions: DHA 0.00
Procedure: Rats were fed QBA and subjected to an elevated plus-maze. The elevated plus-maze was elevated ˜85 cm above the floor and consisted of two open and two closed arms of the same size (50×10 cm). The closed arms were surrounded by walls 40 cm high, and the arms were constructed of black acrylic slabs that radiated from a central platform (10×10 cm) to form a plus sign. Each rat was placed in the central platform facing one of the open arms, and its behavior was recorded during a 5-min testing period with video capture software. More time spent in the open arms is an indication of reduced anxiety-like state. Rats were tested at 18 months old (N=11-13 per group).
The dose-response characteristics of 10-Hydroxy-2-decenoic acid's (QBA's) in combination with DHA for potential brain health benefits during aging were assessed for mood in 19-20 month-old male rats (N=11-14 per group). Rats were fed QBA alone or QBA+DHA and subjected to an elevated plus-maze.

[4] = test system: Human peripheral blood mononuclear cells (PBMC); assay: Proliferation of PBMC after αCD3/CD28 stimulation; type: cell-based; conditions: for Cell Numbers: 72 h
Procedure: Human peripheral blood mononuclear cells (PBMC) were pre-treated with 10-Hydroxy-2-decenoic acid (QBA) for 1 hour prior to stimulation with αCD3/CD28. After 72 hours of incubation, cell number was assessed by Cell Titer Glow.

[5] = Body weight of aged male rats fed QBA and/or DHA (Example 8); type: in vivo, rat
Procedure: Aged male rats were fed 10-Hydroxy-2-decenoic acid (QBA) for approximately […] from 12-months to 20-months of age and the weight of rats was recorded.

[6] = Weight management in mice, colitis-related disease state (cell transfer insult); type: in vivo, mouse; conditions: for % Original Wt: Diseased + QBA 60 mg/kg body weight/day
Procedure: Mice (45 days of age) were fed 60 mg/kg body weight/day QBA (equivalent to 24 mg/kg/d in rats; HED of ˜240 mg/day, N=10) or a control diet (N=15) for 28 days. […] After 28 days, all 10 of the mice fed QBA and 10 of the 15 control mice were subjected to a cell transfer insult wherein the mice were considered to be in a colitis-related disease state. The undiseased controls (N=5) and the diseased controls (N=10) continued on their control diets, and the diseased QBA-fed animals continued on their QBA diets (60 mg/kg body weight/day QBA), for an additional 49 days.

[7] = Townsend et al. 1960; Izuta et al. 2009; cited from earlier work
[8] = QBA 10.00 μM pre-treatment 48 h
[9] = QBA 30.00 μM pre-treatment 48 h
[10] = QBA 100.00 μM pre-treatment 48 h

SMILES: O=C(O)C=CCCCCCCCO [QBA, 10-Hydroxy-2-decenoic acid]
- Cell Death (% Control) ([1]; QBA 0.10 μM pre-treatment 48 h): 86.26 % Control
- Cell Death (% Control) ([1]; QBA 0.30 μM pre-treatment 48 h): 83.62 % Control
- Cell Death (% Control) ([1]; QBA 1.00 μM pre-treatment 48 h): 83.00 % Control
- Cell Death (% Control) ([1]; QBA 3.00 μM pre-treatment 48 h): 82.20 % Control
- Cell Death (% Control) [1, 8]: 85.13 % Control
- Cell Death (% Control) [1, 9]: 82.29 % Control
- Cell Death (% Control) [1, 10]: 86.39 % Control
- cell death after low oxygen exposure ([1]; summary of Table 4): decreased cell death
- Cell Viability (% Control) ([2]; QBA 0.10 μM pre-treatment 48 h): 109.72 % Control
- Cell Viability (% Control) ([2]; QBA 0.30 μM pre-treatment 48 h): 112.76 % Control
- Cell Viability (% Control) ([2]; QBA 1.00 μM pre-treatment 48 h): 118.80 % Control
- Cell Viability (% Control) ([2]; QBA 3.00 μM pre-treatment 48 h): 121.04 % Control
- Cell Viability (% Control) [2, 8]: 117.65 % Control
- Cell Viability (% Control) [2, 9]: 115.05 % Control
- Cell Viability (% Control) [2, 10]: 111.82 % Control
- cell health after low oxygen exposure ([2]; summary of Table 5): increased cell health
- Time (s) in Open Arm ([3]; QBA 12 mg/kg/day): 31.7 s
- Time (s) in Open Arm ([3]; QBA 24 mg/kg/day): 31.7 s
- Cell Numbers ([4]; QBA 50 μM 1 h before αCD3/CD28): 517020
- Cell Numbers ([4]; QBA 100 μM 1 h before αCD3/CD28): 472678
- Cell Numbers ([4]; QBA 500 μM 1 h before αCD3/CD28): 442008
- Cell Numbers ([4]; QBA 1000 μM 1 h before αCD3/CD28): 344026
- Cell Numbers ([4]; QBA 2500 μM 1 h before αCD3/CD28): 104291
- Cell Numbers ([4]; QBA 5000 μM 1 h before αCD3/CD28): 1601
- concentrations that reduced the proliferation of human immune cells ([4]; summary of Table 11): greater than 500 μM
- Avg Wt ([5]; QBA 12 mg/kg/day, study day 0): 547.0 g
- Avg Wt ([5]; QBA 12 mg/kg/day, study day 4): 560.9 g
- Avg Wt ([5]; QBA 12 mg/kg/day, study day 11): 571.5 g
- Avg Wt ([5]; QBA 12 mg/kg/day, study day 18): 580.1 g
- Avg Wt ([5]; QBA 12 mg/kg/day, study day 25): 584.5 g
- Avg Wt ([5]; QBA 12 mg/kg/day, study day 32): 590.8 g
- Avg Wt ([5]; QBA 12 mg/kg/day, study day 39): 591.7 g
- Avg Wt ([5]; QBA 12 mg/kg/day, study day 46): 594.3 g
- Avg Wt ([5]; QBA 12 mg/kg/day, study day 53): 595.4 g
- Avg Wt ([5]; QBA 12 mg/kg/day, study day 60): 598.7 g
- Avg Wt ([5]; QBA 12 mg/kg/day, study day 67): 597.8 g
- Avg Wt ([5]; QBA 12 mg/kg/day, study day 74): 603.7 g
- Avg Wt ([5]; QBA 12 mg/kg/day, study day 81): 607.3 g
- Avg Wt ([5]; QBA 12 mg/kg/day, study day 88): 608.5 g
- Avg Wt ([5]; QBA 12 mg/kg/day, study day 95): 612.8 g
- Avg Wt ([5]; QBA 12 mg/kg/day, study day 102): 614.5 g
- Avg Wt ([5]; QBA 12 mg/kg/day, study day 109): 617.0 g
- Avg Wt ([5]; QBA 12 mg/kg/day, study day 116): 617.2 g
- Avg Wt ([5]; QBA 12 mg/kg/day, study day 123): 617.3 g
- Avg Wt ([5]; QBA 12 mg/kg/day, study day 130): 616.9 g
- Avg Wt ([5]; QBA 12 mg/kg/day, study day 137): 621.5 g
- Avg Wt ([5]; QBA 12 mg/kg/day, study day 144): 619.1 g
- Avg Wt ([5]; QBA 12 mg/kg/day, study day 151): 620.5 g
- Avg Wt ([5]; QBA 24 mg/kg/day, study day 0): 551.5 g
- Avg Wt ([5]; QBA 24 mg/kg/day, study day 4): 566.8 g
- Avg Wt ([5]; QBA 24 mg/kg/day, study day 11): 573.4 g
- Avg Wt ([5]; QBA 24 mg/kg/day, study day 18): 585.7 g
- Avg Wt ([5]; QBA 24 mg/kg/day, study day 25): 593.1 g
- Avg Wt ([5]; QBA 24 mg/kg/day, study day 32): 596.0 g
- Avg Wt ([5]; QBA 24 mg/kg/day, study day 39): 599.7 g
- Avg Wt ([5]; QBA 24 mg/kg/day, study day 46): 601.5 g
- Avg Wt ([5]; QBA 24 mg/kg/day, study day 53): 601.8 g
- Avg Wt ([5]; QBA 24 mg/kg/day, study day 60): 606.5 g
- Avg Wt ([5]; QBA 24 mg/kg/day, study day 67): 607.5 g
- Avg Wt ([5]; QBA 24 mg/kg/day, study day 74): 611.8 g
- Avg Wt ([5]; QBA 24 mg/kg/day, study day 81): 614.5 g
- Avg Wt ([5]; QBA 24 mg/kg/day, study day 88): 617.8 g
- Avg Wt ([5]; QBA 24 mg/kg/day, study day 95): 620.2 g
- Avg Wt ([5]; QBA 24 mg/kg/day, study day 102): 623.9 g
- Avg Wt ([5]; QBA 24 mg/kg/day, study day 109): 627.4 g
- Avg Wt ([5]; QBA 24 mg/kg/day, study day 116): 630.3 g
- Avg Wt ([5]; QBA 24 mg/kg/day, study day 123): 629.2 g
- Avg Wt ([5]; QBA 24 mg/kg/day, study day 130): 630.3 g
- Avg Wt ([5]; QBA 24 mg/kg/day, study day 137): 633.5 g
- Avg Wt ([5]; QBA 24 mg/kg/day, study day 144): 642.1 g
- Avg Wt ([5]; QBA 24 mg/kg/day, study day 151): 638.6 g
- body weight versus control, repeated measures ANOVA ([5]; all doses versus 0 mg/kg/day QBA or 0 mg/kg/day QBA+0.07% DHA): small but significant increase
- body weight maintenance in aging male rats ([5]; summary of Table 14): helped to maintain healthy body weight
- % Original Wt ([6]; day 0): 0.00%
- % Original Wt ([6]; day 3): 1.93%
- % Original Wt ([6]; day 7): 5.33%
- % Original Wt ([6]; day 10): 9.91%
- % Original Wt ([6]; day 14): 9.09%
- % Original Wt ([6]; day 17): 9.10%
- % Original Wt ([6]; day 21): 12.60%
- % Original Wt ([6]; day 24): 15.47%
- % Original Wt ([6]; day 28* (cell transfer insult after 28 days)): 16.19%
- % Original Wt ([6]; day 31): 18.82%
- % Original Wt ([6]; day 35): 20.65%
- % Original Wt ([6]; day 38): 19.66%
- % Original Wt ([6]; day 42): 21.27%
- % Original Wt ([6]; day 45): 22.86%
- % Original Wt ([6]; day 49): 24.04%
- % Original Wt ([6]; day 52): 24.05%
- % Original Wt ([6]; day 56): 22.29%
- % Original Wt ([6]; day 59): 21.83%
- % Original Wt ([6]; day 63): 23.89%
- % Original Wt ([6]; day 66): 22.42%
- % Original Wt ([6]; day 70): 22.95%
- % Original Wt ([6]; day 73): 21.96%
- % Original Wt ([6]; day 77): 20.56%
- weight of mice in a diseased state versus undiseased controls ([6]; QBA 60 mg/kg body weight/day, colitis-related disease state): maintained their weight similar to the undiseased control mice
- percentage increase in body weight versus control diet ([6]; QBA 60 mg/kg body weight/day, first 28 days, before insult): greater percentage increase in body weight
- in vitro antitumor activity [7]: antitumor activity
